Laboratory results taken from patent US5814488A (priority 1993, dated 1998).
Converted amounts (≈) assume the structure as drawn. Like-named read-outs stand apart in the source and are kept apart here.

Experiments:
Escherichia coli = experiment: Comparison of MIC and MBC (Tables 5 and 6); assay type: cell-based
Text: (§1) […]. […] […]

Pseudomonas sp. = experiment: Comparison of MIC and MBC (Tables 5 and 6); assay type: cell-based; conditions: Pseudomonas sp.
Text: as §1

S. aureus = experiment: Comparison of MIC and MBC (Tables 5 and 6); assay type: cell-based; conditions: for MBC range: in µg/mL (unit assumed)
Text: as §1

Klebsiella pneumoniae = experiment: Comparison of MIC and MBC (Tables 5 and 6); assay type: cell-based
Text: as §1

Shigella = experiment: Comparison of MIC and MBC (Tables 5 and 6); assay type: cell-based
Text: as §1

[1] = comparison value for MCR, source not stated in block, cited from earlier work
[2] = Ototoxicity to guinea pig: cochleatoxicity
[3] = Nephrotoxicity to rat after i.m. administration; conditions: gentamicin at 150 MKD and 100 MKD from seventh day
[4] = clinical use; cited from earlier work
[5] = Table 5, 20 strains, unit assumed
[6] = Table 6, 20 strains, in µg/mL (unit assumed)
[7] = Table 6, 20 strains, unit assumed
[8] = Table 5, number 2, unit assumed
[9] = Table 5, S. aureus, 31 strains, unit assumed
[10] = Table 5, 10 strains, unit assumed

Question: Which MBC (Escherichia coli; read-out: MBC90) does the source give for NC[C@H]1O[C@H](O[C@H]2[C@H](O)[C@@H](O[C@H]3O[C@H](CO)[C@@H](O)[C@H](N)[C@H]3O)[C@H](N)C[C@@H]2N)[C@H](O)[C@@H](O)[C@@H]1O [Kanamicin, Kanamycin] here?
Answer: The MBC was 8 µg/mL (≈ 16.5 µM).

Question: And the MBC (Escherichia coli; read-out: MBC range)?
Answer: The MBC was 0.5 to 128 µg/mL (≈ 1.03 to 264 µM).

Question: What about the MBC (Pseudomonas sp.; Table 6, 20 strains, read-out: MBC90) of the same compound?
Answer: Its MBC is 128 µg/mL (≈ 264 µM).

Question: What about the MBC (Pseudomonas sp.; Table 6, 20 strains, read-out: MBC range) of the same compound?
Answer: The MBC was 2 to 256 µg/mL (≈ 4.13 to 528 µM).

Question: What about the MBC (S. aureus; Staphylococcus aureus, read-out: MBC90) of the same compound?
Answer: The MBC was 64 µg/mL (≈ 132 µM).

Question: What about the MBC range (S. aureus; Table 6, S. aureus, 31 strains) of the same compound?
Answer: Its MBC range is 0.125-128.

Question: What about the MBC (Klebsiella pneumoniae; read-out: MBC90) of the same compound?
Answer: The MBC was 4 µg/mL (≈ 8.26 µM).

Question: And the MBC (Klebsiella pneumoniae; read-out: MBC range)?
Answer: Its MBC is 0.25 to 4 µg/mL (≈ 0.516 to 8.26 µM).

Question: What about the MBC (Shigella; Table 6, 10 strains, read-out: MBC90) of the same compound?
Answer: The MBC was 2 µg/mL (≈ 4.13 µM).

Question: What about the MBC (Shigella; Table 6, 10 strains, read-out: MBC range) of the same compound?
Answer: The MBC was 0.5 to 4 µg/mL (≈ 1.03 to 8.26 µM).

Question: With CNC[C@@H]1CC[C@@H](N)[C@@H](O[C@H]2[C@H](O)[C@@H](O[C@H]3OC[C@](C)(O)[C@H](NC)[C@H]3O)[C@H](N)C[C@@H]2N)O1 [MCR, Micronomicin] as the compound, how does the “dosage of general safety” value ([1]; 129600 min) read?
Answer: The value was 25 MKD.

Question: What about the “dosage showing apparent intoxication” value [1] of the same compound?
Answer: Its value is 63 MKD.

Question: Which hair cell morphology ([2]; high dosage) does the source give for Gentamicin here?
Answer: The hair cell morphology was “large number of necrotized hair cell, even stand cell and nerve cell were observed”.

Question: And the auditory function ([2]; high dosages)?
Answer: Its auditory function is “nearly all the auditory function of the animals were lost”.

Question: And the hair cell morphology ([2]; low and middle dosages)?
Answer: The hair cell morphology was “scattered necrotized hair cell and scar formation were observed”.

Question: And the ABR threshold ([2]; middle dosages)?
Answer: Its ABR threshold is “increases of ABR threshold were observed”.

Question: And the MBC50 (Escherichia coli; [5])?
Answer: The MBC50 was 0.5 µg/mL.

Question: And the MBC90 (Escherichia coli; [5])?
Answer: Its MBC90 is 1 µg/mL.

Question: What about the MIC50 (Escherichia coli; [5]) of the same compound?
Answer: Its MIC50 is 0.125 µg/mL.

Question: And the MIC90 (Escherichia coli; [5])?
Answer: Its MIC90 is 0.25 µg/mL.

Question: What about the MBC range (Escherichia coli; [6]) of the same compound?
Answer: The MBC range was 0.125-8.

Question: What about the MBC90 (Escherichia coli; [7]) of the same compound?
Answer: Its MBC90 is 1 µg/mL.

Question: What about the MBC50 (Pseudomonas sp.; [8]) of the same compound?
Answer: Its MBC50 is 2 µg/mL.

Question: And the MBC90 (Pseudomonas sp.; [8])?
Answer: Its MBC90 is 8 µg/mL.

Question: What about the MIC50 (Pseudomonas sp.; [8]) of the same compound?
Answer: The MIC50 was 2 µg/mL.

Question: What about the MIC90 (Pseudomonas sp.; [8]) of the same compound?
Answer: The MIC90 was 4 µg/mL.

Question: What about the MBC range (Pseudomonas sp.; [6]) of the same compound?
Answer: The MBC range was 0.5-16.

Question: And the MBC90 (Pseudomonas sp.; [7])?
Answer: The MBC90 was 8 µg/mL.

Question: What about the MBC50 (S. aureus; [9]) of the same compound?
Answer: The MBC50 was 0.5 µg/mL.

Question: What about the MBC90 (S. aureus; [9]) of the same compound?
Answer: The MBC90 was 2 µg/mL.

Question: What about the MIC50 (S. aureus; [9]) of the same compound?
Answer: Its MIC50 is 0.125 µg/mL.

Question: What about the MIC90 (S. aureus; [9]) of the same compound?
Answer: Its MIC90 is 0.5 µg/mL.

Question: What about the MBC range (S. aureus; Table 6, S. aureus, 31 strains) of the same compound?
Answer: The MBC range was 0.062.

Question: What about the MBC90 (S. aureus; Table 6, S. aureus, 31 strains, unit assumed) of the same compound?
Answer: The MBC90 was 2 µg/mL.

Question: And the MBC50 (Klebsiella pneumoniae; [5])?
Answer: The MBC50 was 0.25 µg/mL.

Question: And the MBC90 (Klebsiella pneumoniae; [5])?
Answer: The MBC90 was 1 µg/mL.

Question: What about the MIC50 (Klebsiella pneumoniae; [5]) of the same compound?
Answer: Its MIC50 is 0.125 µg/mL.

Question: And the MIC90 (Klebsiella pneumoniae; [5])?
Answer: Its MIC90 is 0.25 µg/mL.

Question: What about the MBC range (Klebsiella pneumoniae; [6]) of the same compound?
Answer: Its MBC range is 0.062-2.

Question: And the MBC90 (Klebsiella pneumoniae; [7])?
Answer: Its MBC90 is 1 µg/mL.

Question: And the MBC50 (Shigella; [10])?
Answer: The MBC50 was 0.25 µg/mL.

Question: And the MBC90 (Shigella; [10])?
Answer: Its MBC90 is 1 µg/mL.

Question: And the MIC90 (Shigella; [10])?
Answer: The MIC90 was 0.25 µg/mL.

Question: And the MBC range (Shigella; Table 6, 10 strains, in µg/mL (unit assumed))?
Answer: Its MBC range is 0.125-1.

Question: What about the MBC90 (Shigella; Table 6, 10 strains, unit assumed) of the same compound?
Answer: Its MBC90 is 1 µg/mL.

Question: And the dead animals [3]?
Answer: Its dead animals is “gradually increased”.

Question: What about the side-effects [4] of the same compound?
Answer: Its side-effects is “side-effects of ototoxicity and nephrotoxicity”.
